Earlier results as cited in patent publication US20070202055A1, “Pharmaceutical Formulations” (priority 2006, published 2007).

Legend:
[1] = tested on: symptoms associated with chronic nasal congestion
[2] = tested on: secretions of natural tear components; conditions: preclinical testing

Oc1cccc(Nc2ncc(F)c(Nc3cccc(O)c3)n2)c1 [Example R112]
absolute difference over placebo [1]: 9% | relative improvement over placebo [1]: greater than 20% | improvement from baseline measurements ([1]; baseline prior to drug initiation): up to 38%

Cc1cc(CCCOc2c(C)cc(-c3noc(C(F)(F)F)n3)cc2C)on1 [Pleconaril, 1,2,4-oxadiazole3-[3,5-Dimethyl-4-[3-(3-methyl-5-isoxazolyl)propoxy]phenyl]-5-(trifluoremethyl)]
activity against rhinoviruses (rhinoviruses): active | solubility in aqueous solvents (aqueous solvents): insoluble | solubility in liquids of low polarity (for example corn oil and ethanol): soluble only in liquids of low polarity

O=c1ccn([C@@H]2O[C@H](COP(=O)(O)OP(=O)(O)OP(=O)(O)OP(=O)(O)OC[C@H]3O[C@@H](n4ccc(=O)[nH]c4=O)[C@H](O)[C@@H]3O)[C@@H](O)[C@H]2O)c(=O)[nH]1 [diquafosol]
effect on secretions of natural tear components [2]: increased the secretions of natural tear components
